Laboratory results reported in article PMC10892041, “Vanadium Complexes with Thioanilide Derivatives of Amino Acids: Inhibition of Human Phosphatases and Specificity in Various Cell Models of Metabolic Disturbances” (Pharmaceuticals, 2024).

Experiments:
adipocytes 3T3-L1 = experiment: Scintillation proximity assay, transport of [14C]-deoxy-D-glucose into adipocytes 3T3-L1; type: cell-based, mouse; details: 50 µM
Description: Adipocytes 3T3-L1 cell line (ATCC CRL-11605) derived from fibroblasts from mouse embryo tissue were cultured according to standard protocol in DMEM medium supplemented with 10% bovine calf serum, 100 IU/mL penicillin, and […] streptomycin at 37 °C in 5% CO2. Cells were seeded in 96-well poly-D-lysine-coated plates and cultured to reach confluency.
(§1) Scintillation proximity assay (SPA) is a method to measure the real-time accumulation of radiolabeled substrates by adherent cells with no filtration needed. Radioactivity concentrated closer to the scintillator embedded in the plastic bottom of each well provides a stronger signal than the radiolabeled substrate in the culture medium. Uptake of radiolabeled 2-deoxy-D-[U-14C]-glucose was conducted based on previous descriptions.
Adipocytes were washed and the medium was changed to the basal medium. After 24 h incubation, the tested complexes were added. After 2 h incubation at 37 °C in 5% CO2, the medium was changed to DMEM medium without glucose, with 0.1% BSA free from fatty acid, […] L-glutamine, and […] pyruvate. The tested complexes were added again, and further incubation for 4 h was conducted.
(§2) For cells proceeded as above, 2-deoxy-D-[U-14C]-glucose (250–350 mCi/mmol, NEC720A, PerkinElmer) solution in KRB with a total activity of 0.03 mCi was added to each well. […] Non-specific radioactivity was subtracted from each result (cpm). Two independent experiments with triplicates were conducted.

SHP1 = biological target: T1, SHP1 (Homo sapiens, UniProt P29350); experiment: Inhibition of human recombinant tyrosine phosphatase SHP1 (DiFMUP fluorescence); type: biochemical; details: 1 µM; control solvent only; SD did not exceed 6%
T1 construct: purchased Sigma-Aldrich
Description: (§3) To determine the ability of the tested compounds for inhibition tyrosine phosphatases, human recombinant proteins were used (Sigma-Aldrich). The reactions were performed in black opaque 384-well microplates (PerkinElmer, Waltham, MA, USA). An equal volume of phosphatase solution in a reaction buffer (25 mM of 3-(N-morpholino)propanesulfonic acid (MOPS), 50 mM NaCl, 1 mM dithiothreitol (DTT), and 0.05% Tween-20 (pH 7.0)) was added to the solution of the tested compound on microplate. These solutions were dispensed using an automated injector. The following final concentrations of the tested phosphatases were used: PTP1B 50 ng/mL, SHP1 400 ng/mL, SHP2 50 ng/mL, LAR 5 ng/mL, and PTPRA 100 ng/mL. After 10 min, a solution of phosphate 6,8-difluoro-4-methyl (DiFMUP; Thermo Fisher Scientific) was added until its final concentration was 0.1 mM. Samples were incubated for 20 miN at 23 °C, and then the measurements of fluorescence intensity (excitation 355 and emission […]) were performed on a multifunctional plate reader POLARstar Omega (BMG Labtech, Ortenberg, Germany). Assays were performed in triplicate. For the screening assays, the final concentration of the tested compounds was 1 µM. The results were expressed as percent inhibition of untreated control (enzyme with vehicle only) for the screening tests. […] IC50 were calculated using GraphPad Prism version 6.0 software (GraphPad Software, Boston, MA, USA).

LAR = biological target: T2, LAR (Homo sapiens, UniProt P10586); experiment: Inhibition of human recombinant tyrosine phosphatase LAR (DiFMUP fluorescence); type: biochemical; details: 1 µM; control solvent only; SD did not exceed 6%
T2 sequence (P10586 1352-1607 limits assumed): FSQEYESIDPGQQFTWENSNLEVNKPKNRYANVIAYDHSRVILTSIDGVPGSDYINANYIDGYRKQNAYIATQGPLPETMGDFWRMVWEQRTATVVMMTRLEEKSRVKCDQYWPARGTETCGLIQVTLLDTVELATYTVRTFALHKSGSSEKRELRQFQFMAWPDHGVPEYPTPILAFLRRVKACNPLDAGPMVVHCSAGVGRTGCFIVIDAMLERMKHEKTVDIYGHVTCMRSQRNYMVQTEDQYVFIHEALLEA
Description: as §3

PTP1B = biological target: T3, PTP1B (Homo sapiens, UniProt P18031); experiment: Inhibition of human recombinant tyrosine phosphatase PTP1B (DiFMUP fluorescence); type: biochemical; details: 1 µM; control solvent only; SD did not exceed 6%
T3 construct: purchased Sigma-Aldrich
T3 sequence (P18031 1-435): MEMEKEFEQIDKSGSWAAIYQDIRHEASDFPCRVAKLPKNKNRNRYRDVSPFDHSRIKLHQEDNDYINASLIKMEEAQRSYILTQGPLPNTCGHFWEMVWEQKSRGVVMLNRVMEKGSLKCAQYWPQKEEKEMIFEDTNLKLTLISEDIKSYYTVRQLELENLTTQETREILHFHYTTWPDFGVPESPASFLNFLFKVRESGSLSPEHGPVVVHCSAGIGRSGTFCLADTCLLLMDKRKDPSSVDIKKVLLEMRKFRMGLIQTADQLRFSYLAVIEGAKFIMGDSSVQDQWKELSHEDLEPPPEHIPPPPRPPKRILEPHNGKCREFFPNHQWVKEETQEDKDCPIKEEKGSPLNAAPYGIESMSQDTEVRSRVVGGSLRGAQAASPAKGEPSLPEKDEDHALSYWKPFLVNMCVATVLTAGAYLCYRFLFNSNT
Description: as §3

SHP2 = biological target: T4, SHP2 (Homo sapiens, UniProt Q06124); experiment: Inhibition of human recombinant tyrosine phosphatase SHP2 (DiFMUP fluorescence); type: biochemical; details: 1 µM; control solvent only; SD did not exceed 6%
T4 construct: purchased Sigma-Aldrich
T4 sequence (Q06124 1-593): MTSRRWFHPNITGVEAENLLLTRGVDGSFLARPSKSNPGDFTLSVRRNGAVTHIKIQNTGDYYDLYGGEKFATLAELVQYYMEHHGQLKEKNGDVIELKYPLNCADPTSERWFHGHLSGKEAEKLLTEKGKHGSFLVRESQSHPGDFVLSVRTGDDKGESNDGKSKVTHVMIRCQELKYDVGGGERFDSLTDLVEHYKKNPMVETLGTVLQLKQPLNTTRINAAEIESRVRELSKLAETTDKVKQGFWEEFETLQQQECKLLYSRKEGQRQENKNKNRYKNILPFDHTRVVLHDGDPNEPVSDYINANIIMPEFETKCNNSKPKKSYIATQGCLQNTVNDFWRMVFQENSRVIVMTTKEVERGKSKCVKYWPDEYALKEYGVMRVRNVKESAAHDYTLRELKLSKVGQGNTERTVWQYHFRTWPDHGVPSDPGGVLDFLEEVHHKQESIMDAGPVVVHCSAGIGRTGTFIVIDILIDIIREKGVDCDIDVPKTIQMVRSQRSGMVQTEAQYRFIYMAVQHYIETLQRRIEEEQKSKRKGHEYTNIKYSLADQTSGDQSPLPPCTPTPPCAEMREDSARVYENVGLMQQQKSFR
Description: as §3

myocytes C2C12 [1] = experiment: Scintillation proximity assay, transport of [14C]-deoxy-D-glucose into myocytes C2C12; type: cell-based, mouse
Description: (§4) The myocyte C2C12 cell line (ATCC CRL-1772), a subclone of myoblasts from mouse muscles, was cultured according to standard protocol in DMEM supplemented with 10% fetal calf serum, 100 IU/ml penicillin, and […] streptomycin at 37 °C in 5% CO2. Cells were pleated on a 96-well microplate and after reach confluence were differentiated in medium with 2% horse serum. Differentiation medium was changed every 72 h.
as §1
After 24 h incubation, the tested complexes were added. After 2 h incubation at 37 °C in 5% CO2, the medium was changed to low-glucose medium (1000 mg/L), and the tested complexes were added again, with further incubation for 4 h being conducted.
as §2

myocytes C2C12 [2] = experiment: Glucose consumption (utilization) by myocytes C2C12; type: cell-based, mouse; details: 50 µM (highest tested concentration); 24 h
Description: as §4
Differentiated myocytes C2C12 were used after 8 days of differentiation. The culture medium was changed for medium with 0.2% bovine serum albumin, 100 IU/mL penicillin, and 100 µg/mL streptomycin, and after 2 hours of incubation, the medium was changed to fresh medium containing the tested compounds. […]
Glucose concentration was determined based on enzymatic reaction with glucose oxidase and fluorometrically detection reaction end product using an AmplexRed Glucose/Glucose Oxidase Kit (Thermo Fisher Scientific) according to the manufacturer’s protocol. […] Fluorescence signal was measured at excitation of 530 nm and emission of 580 nm using a multimodal microplate reader POLARStar Omega (BMG Labtech), and glucose concentration in samples was calculated in MARS Data Analysis Software version 3.02.R2 (BMG Labtech) based on glucose standards. […] The final results were expressed as the percent of controls containing cells and solvent only.

T1 sequence (P29350 whole entry): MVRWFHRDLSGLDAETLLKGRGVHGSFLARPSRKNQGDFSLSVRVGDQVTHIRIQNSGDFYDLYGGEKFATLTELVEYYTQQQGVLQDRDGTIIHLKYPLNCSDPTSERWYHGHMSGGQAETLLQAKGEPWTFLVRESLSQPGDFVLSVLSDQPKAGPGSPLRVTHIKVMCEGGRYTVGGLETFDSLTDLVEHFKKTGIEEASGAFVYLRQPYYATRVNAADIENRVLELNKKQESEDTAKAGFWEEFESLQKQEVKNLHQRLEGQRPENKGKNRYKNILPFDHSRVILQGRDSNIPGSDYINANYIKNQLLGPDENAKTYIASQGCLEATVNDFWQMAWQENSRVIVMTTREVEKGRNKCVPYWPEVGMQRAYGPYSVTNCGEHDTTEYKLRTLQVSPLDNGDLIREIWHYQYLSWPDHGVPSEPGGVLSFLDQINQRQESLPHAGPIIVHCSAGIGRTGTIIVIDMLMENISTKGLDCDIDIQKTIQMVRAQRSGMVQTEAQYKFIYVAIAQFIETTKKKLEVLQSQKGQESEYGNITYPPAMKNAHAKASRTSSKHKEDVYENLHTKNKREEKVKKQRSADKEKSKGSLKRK

| Compound | Transport of [14C]-deoxy-D-glucose into 3T3-L1 adipocytes, % of control (adipocytes 3T3-L1) | Inhibition of SHP1, percentage of inhibition of the control (SHP1) [%] | Inhibition of LAR, percentage of inhibition of the control (LAR) [%] | Inhibition of PTP1B, percentage of inhibition of the control (PTP1B) [%] | Inhibition of SHP2, percentage of inhibition of the control (SHP2) [%] | Transport of [14C]-deoxy-D-glucose into C2C12 myocytes, % of the control (myocytes C2C12 [1]; 50 µM, control solvent only) | Transport of [14C]-deoxy-D-glucose into C2C12 myocytes (myocytes C2C12 [1]; 10 and 1 µM) | Glucose consumption by myocytes C2C12, % of the control (myocytes C2C12 [2]) |
| --- | --- | --- | --- | --- | --- | --- | --- | --- |
| O.[O]=[V]1[O]C(c2ccccc2O)=NN=Cc2cc(Br)ccc2[O]1.c1cnc2c(c1)ccc1cccnc12 [VC013, [VO(L6)(phen)]⋅H2O] | statistically significant activity | 67 | 66 | 60 | 74 |  |  |  |
| O.O=C(NN=Cc1cc(Br)ccc1[O][V]1[O]C(c2ccccc2)=NN=Cc2cc(Br)ccc2[O]1)c1ccccc1 [VC032, [V(L8)(HL8)]⋅H2O] |  | 44 | 8 | 9 | 48 | 266 ± 36 % of control | significant effects | No statistically significant effect |
